Laboratory results from PubChem BioAssay AID434987 (Southern Research Specialized Biocontainment Screening …, 2010).
pIC50: −log10 of the molar value. Activity calls are given as the source filed them. The rule behind the calls is not given here.

Tested on: M. tuberculosis H37Rv growth inhibition with meropenem
Assay: dose response, H37Rv, with and without meropenem (AID 434987);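 note: growth over 7 days at 37 °C before Alamar Blue read on day 9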
[1] = M. tuberculosis H37Rv growth inhibition, measured here: IC50 without meropenem
[2] = M. tuberculosis H37Rv growth inhibition, measured here: IC90 without meropenem
[3] = measured here: IC90 with meropenem

`Cc1ccc2c(Cl)cc(Cl)c(OCc3c(C)noc3C)c2n1` was tested, and the pIC50 was 4.60, the pIC50 [1] was under 4.00 and the IC90 [2] was over 100 µM. The IC90 [3] was over 100 µM.

`O=C(COc1cccc2cccnc12)N/N=C/c1ccc(O)cc1` gave a pIC50 of 4.57, a pIC50 [1] of under 4.00 and an IC90 [2] of over 100 µM. For the same compound, the IC90 [3] was over 50 µM.

`O=C(Nc1nc(-c2ccc(F)c(F)c2)cs1)c1cnccn1` was tested, and the pIC50 was 4.83, the pIC50 [1] was under 4.00 and the IC90 [2] was over 100 µM. It also gave an IC90 [3] of over 100 µM.

For `CCN(CCNC(=O)Nc1ccc(Cl)cc1)c1ccccc1`, the IC50 was > 100 µM (inactive), the pIC50 [1] was under 4.00 and the IC90 [2] was over 100 µM. It also gave an IC90 [3] of over 100 µM.

With `CCOc1cc(C(=O)N2CCC(CC3CC(c4ccccc4)=NO3)(C(=O)NCc3ccc(OC)cc3)CC2)cc(OCC)c1OCC` (stereo not drawn) the IC50 was > 100 µM (inactive), the pIC50 [1] was under 4.00 and the IC90 [2] was over 100 µM. It also gave an IC90 [3] of over 100 µM.

`COc1cccc(/C=N/NC(=O)c2cnccn2)c1O` gave a pIC50 of 5.59, a pIC50 [1] of 4.35 and an IC90 [2] of over 100 µM. It also gave an IC90 [3] of 13.9 µM.

`C=C1C(=O)O[C@@H]2[C@H]1[C@@H](OC(=O)/C(C)=C/C)C/C(C)=C\C(=O)/C=C(\C)[C@@H]2O` showed a pIC50 of 5.91, a pIC50 [1] of 4.73 and an IC90 [2] of 29 µM. It also gave an IC90 [3] of 25.2 µM.

With `CCOC(=O)c1c(C)[nH]c(C(=O)COC(=O)CCC2CCCC2)c1C` the IC50 was > 100 µM (inactive), the pIC50 [1] was under 4.00 and the IC90 [2] was over 100 µM. For the same compound, the IC90 [3] was over 100 µM.

In the case of `COc1ccc(-c2cc(C(F)(F)F)nc(SCC(=O)Nc3sc4c(c3C#N)CCC4)n2)cc1`, the IC50 was 94 µM (inactive), the pIC50 [1] was under 4.00 and the IC90 [2] was over 100 µM. The IC90 [3] was over 100 µM.

For `CC1CN(C2CCCCC2)c2nc3c(c(=O)[nH]c(=O)n3C)n2C1` (stereo not drawn), the IC50 was > 100 µM (inactive), the pIC50 [1] was under 4.00 and the IC90 [2] was over 100 µM. It also gave an IC90 [3] of over 100 µM.

With `O=C(CN(Cc1ccco1)C(=O)c1cccc(Cl)c1)Nc1c(Cl)cc(Cl)cc1Cl` the IC50 was 48.3 µM (inactive), the pIC50 [1] was under 4.00 and the IC90 [2] was over 100 µM. For the same compound, the IC90 [3] was over 100 µM.

`COc1ccc(-n2cc(-c3ccccc3)c3c(NN4CCOCC4)ncnc32)cc1` was tested, and the IC50 was 22.4 µM (inactive), the pIC50 [1] was 4.48 and the IC90 [2] was 60.3 µM. The IC90 [3] was 36.1 µM.

With `O=C(CCN1CCOCC1)c1ccc(N2CCCCC2)cc1` the IC50 was 14 µM (inactive), the pIC50 [1] was 4.56 and the IC90 [2] was 37.3 µM. It also gave an IC90 [3] of 72.7 µM.

In the case of `CCC(=O)Oc1oc(-c2ccccc2)nc1C=Nc1ccc(C)cc1`, the IC50 was > 100 µM (inactive), the pIC50 [1] was under 4.00 and the IC90 [2] was over 100 µM. The IC90 [3] was over 100 µM.

In the case of `CC1(C)CN=C(Nc2nc3ccccc3s2)S1`, the pIC50 was 4.54, the pIC50 [1] was under 4.00 and the IC90 [2] was over 100 µM. The IC90 [3] was over 50 µM.

`O=C(CN1CCN(c2ccccn2)CC1)Nc1ccc(Cl)c(C(F)(F)F)c1` was tested, and the IC50 was 58.5 µM (inactive), the pIC50 [1] was 4.05 and the IC90 [2] was over 100 µM. It also gave an IC90 [3] of over 100 µM.

For `CN1C/C(=N\S(=O)(=O)c2ccccc2)N(C)C1=O`, the IC50 was 13 µM (inactive), the pIC50 [1] was 4.63 and the IC90 [2] was 46.7 µM. The IC90 [3] was 33.7 µM.

`COc1cc(CNc2ccc(NC(C)=O)cc2)ccc1OCc1ccccc1C` was tested, and the IC50 was > 100 µM (inactive), the pIC50 [1] was under 4.00 and the IC90 [2] was over 100 µM. For the same compound, the IC90 [3] was over 100 µM.

For `O=C(Nc1ccc(Cl)cc1F)c1cccc2ccccc12`, the IC50 was > 100 µM (inactive), the pIC50 [1] was under 4.00 and the IC90 [2] was over 100 µM. For the same compound, the IC90 [3] was over 100 µM.

`COCCOC(=O)c1c(C)oc2ccc(OCc3cc(C(=O)OC)oc3C)cc12` was tested, and the IC50 was > 100 µM (inactive), the pIC50 [1] was under 4.00 and the IC90 [2] was over 100 µM. For the same compound, the IC90 [3] was over 100 µM.

`CCc1cc2c(-c3ccccc3)cc(=O)oc2cc1OC(C)C(C)=O` (stereo not drawn) was tested, and the IC50 was 45.6 µM (inactive), the pIC50 [1] was 4.32 and the IC90 [2] was 53.8 µM. For the same compound, the IC90 [3] was 48.5 µM.

For `N#Cc1ccc(C23CC4(C2)[C@H](CN(Cc2cccnc2)[C@@H]4c2ccccc2)C3c2ccccc2)cc1` (stereo partly drawn), the IC50 was 56.2 µM (inactive), the pIC50 [1] was 4.14 and the IC90 [2] was over 100 µM. The IC90 [3] was over 100 µM.

For `c1ccc(OCc2nnc(-c3ccccc3)o2)cc1`, the pIC50 was 5.85, the pIC50 [1] was 4.09 and the IC90 [2] was over 100 µM. The IC90 [3] was over 100 µM.

In the case of `CCOC(=O)C(=CNc1ccc2c(c1)c1ccccc1n2CC)C(=O)OCC`, the pIC50 was 4.82, the pIC50 [1] was under 4.00 and the IC90 [2] was over 100 µM. The IC90 [3] was over 25 µM.

In the case of `CCOC(=O)c1cc(-c2ccccc2)sc1NC(=O)C(C)N1C(=O)NC(C)(c2ccc(Cl)cc2)C1=O` (stereo not drawn), the IC50 was > 100 µM (inactive), the pIC50 [1] was under 4.00 and the IC90 [2] was over 100 µM. For the same compound, the IC90 [3] was over 100 µM.

With `Cc1ccc(CNC(=O)c2cn(C)c3ccc(S(=O)(=O)N4CCOCC4)cc3c2=O)cc1` the IC50 was > 50 µM (inactive), the pIC50 [1] was under 4.00 and the IC90 [2] was over 100 µM. For the same compound, the IC90 [3] was over 50 µM.

`COc1ccc(CNC(=O)C2CCN(S(=O)(=O)c3c(C)noc3/C=C/N(C)C)CC2)cc1` was tested, and the IC50 was > 100 µM (inactive), the pIC50 [1] was under 4.00 and the IC90 [2] was over 100 µM. For the same compound, the IC90 [3] was over 100 µM.

In the case of `C/C(=N\NC(=O)c1ccccc1O)c1ccc(Br)s1`, the IC50 was > 100 µM (inactive), the pIC50 [1] was under 4.00 and the IC90 [2] was over 100 µM. The IC90 [3] was over 100 µM.

In the case of `COc1ccc2nc(SCc3cccc(C)c3)nc(C)c2c1`, the IC50 was > 100 µM (inactive), the pIC50 [1] was under 4.00 and the IC90 [2] was over 100 µM. It also gave an IC90 [3] of over 100 µM.

With `CCN(CC)S(=O)(=O)c1ccc(N/N=C(\C)c2ccc(OC)cc2O)nc1` the pIC50 was 5.97, the pIC50 [1] was 5.24 and the IC90 [2] was 11.3 µM. For the same compound, the IC90 [3] was 10.4 µM.

`CCOC(=O)Cc1nc2ccccc2[nH]1` gave a pIC50 of 4.82, a pIC50 [1] of 4.30 and an IC90 [2] of over 100 µM. For the same compound, the IC90 [3] was over 100 µM.

`O=C(N/N=C/c1ccc(-c2cccc(C(F)(F)F)c2)o1)c1ccccc1O` was tested, and the pIC50 was 4.48, the pIC50 [1] was under 4.00 and the IC90 [2] was over 100 µM. The IC90 [3] was over 100 µM.

`Cc1ccc2[nH]c(O)c(N=Nc3nc4ccccc4s3)c2c1` was tested, and the pIC50 was 5.17, the pIC50 [1] was under 4.00 and the IC90 [2] was over 100 µM. It also gave an IC90 [3] of over 100 µM.

For `CCOC(=O)c1c(C)[nH]c(C)c1C(=O)COC(=O)/C=C/c1ccc(OC(F)F)cc1`, the IC50 was 61.1 µM (inactive), the pIC50 [1] was 4.01 and the IC90 [2] was over 100 µM. The IC90 [3] was 91.4 µM.

In the case of `CC(C)OCc1c(C(=O)Nc2nccs2)oc2ccccc12`, the IC50 was 97.9 µM (inactive), the pIC50 [1] was under 4.00 and the IC90 [2] was over 100 µM. The IC90 [3] was over 100 µM.

Compound `c1ccc(-n2c3ccccc3c3ccccc32)cc1` has a pIC50 of 5.49, a pIC50 [1] of under 4.00 and an IC90 [2] of over 100 µM. For the same compound, the IC90 [3] was 22.7 µM.

With `CC(=O)C1=C(C)NC(SCC(=O)c2ccccc2)=C(C#N)C1CC(C)C` (stereo not drawn) the IC50 was 51.8 µM (inactive), the pIC50 [1] was 4.05 and the IC90 [2] was over 100 µM. It also gave an IC90 [3] of over 100 µM.

For `CC(C)c1ccc(/C=C/C(=O)NC2CCCCC2)cc1`, the pIC50 was 4.42, the pIC50 [1] was under 4.00 and the IC90 [2] was over 100 µM. It also gave an IC90 [3] of over 100 µM.

`CCCCN(C)Cc1cc(=O)oc2cc3c(cc12)CCCC3` was tested, and the IC50 was 64.3 µM (inactive), the pIC50 [1] was 4.10 and the IC90 [2] was over 100 µM. For the same compound, the IC90 [3] was 82.2 µM.

In the case of `CCCCC12CN3CC(C)(CN(C1)C3c1ccc([N+](=O)[O-])o1)C2=O` (stereo not drawn), the pIC50 was 5.39, the pIC50 [1] was 4.57 and the IC90 [2] was 98.7 µM. The IC90 [3] was 23.5 µM.

With `COc1cc(CNCCO)cc(Br)c1OCc1ccccc1Cl` the IC50 was 46.2 µM (inactive), the pIC50 [1] was 4.32 and the IC90 [2] was 53.7 µM. For the same compound, the IC90 [3] was 52.7 µM.

`O=C(NC1CCCCCCC1)c1ccc(Br)cc1` was tested, and the IC50 was > 100 µM (inactive), the pIC50 [1] was under 4.00 and the IC90 [2] was over 100 µM. For the same compound, the IC90 [3] was over 100 µM.
